From PubChem BioAssay AID2060897 (Molecular Pharmacology Branch, DTP, NCI, 2025)
One block for each molecule: values may come before it.

System: 966289-007-R4-J1-PDC complex spheroid viability
Assay: Anticancer human tumor 966289-007-R4-J1-PDC patient-derived pancreatic adenocarcinoma cell line growth inhibition [RAS]
Conditions: for IC50: curve of first compound; for viability, T/C: stronger effect = lower value
Method in brief: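 Agents were tested in combination matrices in half-log decrements from a top concentration at or near clinical Cmax (10 microM if undetermined). Targets were multi-cell spheroids of tumour lines plus HUVEC and MSC stromal cells.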

[1] = second compound 0.000949 µM, first compound 0.0316 µM
[2] = second compound 0.000949 µM, first compound 0.1 µM
[3] = second compound 0.000949 µM, first compound 0.316 µM
[4] = second compound 0.000949 µM, first compound 1 µM
[5] = second compound 0.003 µM, first compound 0.0316 µM
[6] = second compound 0.003 µM, first compound 0.1 µM
[7] = second compound 0.003 µM, first compound 0.316 µM
[8] = second compound 0.003 µM, first compound 1 µM
[9] = second compound 0.00949 µM, first compound 0.0316 µM
[10] = second compound 0.00949 µM, first compound 0.1 µM
[11] = second compound 0.00949 µM, first compound 0.316 µM
[12] = second compound 0.00949 µM, first compound 1 µM
[13] = second compound 0.03 µM, first compound 0.0316 µM
[14] = second compound 0.03 µM, first compound 0.1 µM
[15] = second compound 0.03 µM, first compound 0.316 µM
[16] = second compound 0.03 µM, first compound 1 µM
[17] = second compound 0.0949 µM, first compound 0.0316 µM
[18] = second compound 0.0949 µM, first compound 0.1 µM
[19] = second compound 0.0949 µM, first compound 0.316 µM
[20] = second compound 0.0949 µM, first compound 1 µM
[21] = second compound 0.3 µM, first compound 0.0316 µM
[22] = second compound 0.3 µM, first compound 0.1 µM
[23] = second compound 0.3 µM, first compound 0.316 µM
[24] = second compound 0.3 µM, first compound 1 µM
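Note: spheroids exposed to agents for one week before readout.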
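Throughout, for viability, T/C: percent viability relative to DMSO vehicle control wells as 100%.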

- IC50 (second compound 0.000949 µM): < 31.6 nM
- IC50 (second compound 0.003 µM): < 31.6 nM
- IC50 (second compound 0.00949 µM): < 31.6 nM
- IC50 (second compound 0.03 µM): < 31.6 nM
- IC50 (second compound 0.0949 µM): < 31.6 nM
- IC50 (second compound 0.3 µM): < 31.6 nM
Structure (SMILES): CC(=O)OC12COC1CC(O)C1(C)C(=O)C(O)C3=C(C)C(OC(=O)C(O)C(NC(=O)OC(C)(C)C)c4ccccc4)CC(O)(C(OC(=O)c4ccccc4)C21)C3(C)C (stereo unspecified) + CCn1c(-c2cccnc2C(C)OC)c2c3cc(ccc31)N1CCOC(CC(NC(=O)C(C(C)C)N(C)C(=O)C3(F)CCN(C(=O)C#CC(C)(C)N(C)C)CC3)C(=O)N3CCCC(N3)C(=O)OCC(C)(C)C2)C1
- viability, T/C [1]: 5.96%
- viability, T/C [2]: 11.7%
- viability, T/C [3]: 9.08%
- viability, T/C [4]: 14.2%
- viability, T/C (second compound 0.000949 µM, first compound 3.16 µM): 38%
- viability, T/C (second compound 0.000949 µM, first compound 10 µM): 61.4%
- viability, T/C [5]: 5.16%
- viability, T/C [6]: 12.8%
- viability, T/C [7]: 11%
- viability, T/C [8]: 16.3%
- viability, T/C (second compound 0.003 µM, first compound 3.16 µM): 32.3%
- viability, T/C (second compound 0.003 µM, first compound 10 µM): 52%
- viability, T/C [9]: 4.31%
- viability, T/C [10]: 11.3%
- viability, T/C [11]: 10.9%
- viability, T/C [12]: 16.3%
- viability, T/C (second compound 0.00949 µM, first compound 3.16 µM): 25.2%
- viability, T/C (second compound 0.00949 µM, first compound 10 µM): 59.7%
- viability, T/C [13]: 2.88%
- viability, T/C [14]: 3.54%
- viability, T/C [15]: 8.87%
- viability, T/C [16]: 10.5%
- viability, T/C (second compound 0.03 µM, first compound 3.16 µM): 20.4%
- viability, T/C (second compound 0.03 µM, first compound 10 µM): 49.5%
- viability, T/C [17]: 2.26%
- viability, T/C [18]: 4.26%
- viability, T/C [19]: 3.62%
- viability, T/C [20]: 4.99%
- viability, T/C (second compound 0.0949 µM, first compound 3.16 µM): 16.5%
- viability, T/C (second compound 0.0949 µM, first compound 10 µM): 26.8%
- viability, T/C [21]: 1.97%
- viability, T/C [22]: 3.21%
- viability, T/C [23]: 4.05%
- viability, T/C [24]: 4.51%
- viability, T/C (second compound 0.3 µM, first compound 3.16 µM): 7.84%
- viability, T/C (second compound 0.3 µM, first compound 10 µM): 9.46%

- IC50 (second compound 0.000949 µM): 1.76 nM
- IC50 (second compound 0.003 µM): 1.73 nM
- IC50 (second compound 0.00949 µM): 1.62 nM
- IC50 (second compound 0.03 µM): 1.18 nM
- IC50 (second compound 0.0949 µM): 0.96 nM
- IC50 (second compound 0.3 µM): < 0.949 nM
Structure (SMILES): CCc1c2c(nc3ccc(O)cc13)-c1cc3c(c(=O)n1C2)COC(=O)[C@]3(O)CC + CCn1c(-c2cccnc2C(C)OC)c2c3cc(ccc31)N1CCOC(CC(NC(=O)C(C(C)C)N(C)C(=O)C3(F)CCN(C(=O)C#CC(C)(C)N(C)C)CC3)C(=O)N3CCCC(N3)C(=O)OCC(C)(C)C2)C1
- viability, T/C (second compound 0.000949 µM, first compound 0.000949 µM): 103%
- viability, T/C (second compound 0.000949 µM, first compound 0.003 µM): 4.09%
- viability, T/C (second compound 0.000949 µM, first compound 0.00949 µM): 0.96%
- viability, T/C (second compound 0.000949 µM, first compound 0.03 µM): 0.65%
- viability, T/C (second compound 0.000949 µM, first compound 0.0949 µM): 0.49%
- viability, T/C (second compound 0.000949 µM, first compound 0.3 µM): 0.69%
- viability, T/C (second compound 0.003 µM, first compound 0.000949 µM): 99.8%
- viability, T/C (second compound 0.003 µM, first compound 0.003 µM): 4.15%
- viability, T/C (second compound 0.003 µM, first compound 0.00949 µM): 0.79%
- viability, T/C (second compound 0.003 µM, first compound 0.03 µM): 0.63%
- viability, T/C (second compound 0.003 µM, first compound 0.0949 µM): 0.64%
- viability, T/C (second compound 0.003 µM, first compound 0.3 µM): 0.67%
- viability, T/C (second compound 0.00949 µM, first compound 0.000949 µM): 89.8%
- viability, T/C (second compound 0.00949 µM, first compound 0.003 µM): 4.69%
- viability, T/C (second compound 0.00949 µM, first compound 0.00949 µM): 1.12%
- viability, T/C (second compound 0.00949 µM, first compound 0.03 µM): 0.52%
- viability, T/C (second compound 0.00949 µM, first compound 0.0949 µM): 0.51%
- viability, T/C (second compound 0.00949 µM, first compound 0.3 µM): 0.56%
- viability, T/C (second compound 0.03 µM, first compound 0.000949 µM): 60.8%
- viability, T/C (second compound 0.03 µM, first compound 0.003 µM): 3.34%
- viability, T/C (second compound 0.03 µM, first compound 0.00949 µM): 1.17%
- viability, T/C (second compound 0.03 µM, first compound 0.03 µM): 0.76%
- viability, T/C (second compound 0.03 µM, first compound 0.0949 µM): 0.58%
- viability, T/C (second compound 0.03 µM, first compound 0.3 µM): 0.79%
- viability, T/C (second compound 0.0949 µM, first compound 0.000949 µM): 50.5%
- viability, T/C (second compound 0.0949 µM, first compound 0.003 µM): 2.92%
- viability, T/C (second compound 0.0949 µM, first compound 0.00949 µM): 0.55%
- viability, T/C (second compound 0.0949 µM, first compound 0.03 µM): 0.56%
- viability, T/C (second compound 0.0949 µM, first compound 0.0949 µM): 0.56%
- viability, T/C (second compound 0.0949 µM, first compound 0.3 µM): 0.53%
- viability, T/C (second compound 0.3 µM, first compound 0.000949 µM): 18.4%
- viability, T/C (second compound 0.3 µM, first compound 0.003 µM): 1.07%
- viability, T/C (second compound 0.3 µM, first compound 0.00949 µM): 0.76%
- viability, T/C (second compound 0.3 µM, first compound 0.03 µM): 0.59%
- viability, T/C (second compound 0.3 µM, first compound 0.0949 µM): 0.68%
- viability, T/C (second compound 0.3 µM, first compound 0.3 µM): 0.5%

- IC50 (second compound 0.000949 µM): 7.01 nM
- IC50 (second compound 0.003 µM): 5.6 nM
- IC50 (second compound 0.00949 µM): 4.48 nM
- IC50 (second compound 0.03 µM): 4.23 nM
- IC50 (second compound 0.0949 µM): 4.66 nM
- IC50 (second compound 0.3 µM): 5.27 nM
Structure (SMILES): Nc1ccn(C2OC(CO)C(O)C2(F)F)c(=O)n1 (stereo unspecified) + CCn1c(-c2cccnc2C(C)OC)c2c3cc(ccc31)N1CCOC(CC(NC(=O)C(C(C)C)N(C)C(=O)C3(F)CCN(C(=O)C#CC(C)(C)N(C)C)CC3)C(=O)N3CCCC(N3)C(=O)OCC(C)(C)C2)C1
- viability, T/C (second compound 0.000949 µM, first compound 0.00316 µM): 119%
- viability, T/C (second compound 0.000949 µM, first compound 0.01 µM): 18.9%
- viability, T/C [1]: 1.45%
- viability, T/C [2]: 0.78%
- viability, T/C [3]: 0.73%
- viability, T/C [4]: 0.9%
- viability, T/C (second compound 0.003 µM, first compound 0.00316 µM): 87.3%
- viability, T/C (second compound 0.003 µM, first compound 0.01 µM): 12.3%
- viability, T/C [5]: 1.03%
- viability, T/C [6]: 0.84%
- viability, T/C [7]: 1.07%
- viability, T/C [8]: 1.18%
- viability, T/C (second compound 0.00949 µM, first compound 0.00316 µM): 67.6%
- viability, T/C (second compound 0.00949 µM, first compound 0.01 µM): 9.69%
- viability, T/C [9]: 0.94%
- viability, T/C [10]: 0.85%
- viability, T/C [11]: 0.87%
- viability, T/C [12]: 1.1%
- viability, T/C (second compound 0.03 µM, first compound 0.00316 µM): 64%
- viability, T/C (second compound 0.03 µM, first compound 0.01 µM): 8.78%
- viability, T/C [13]: 0.83%
- viability, T/C [14]: 1.03%
- viability, T/C [15]: 1.23%
- viability, T/C [16]: 0.98%
- viability, T/C (second compound 0.0949 µM, first compound 0.00316 µM): 72.2%
- viability, T/C (second compound 0.0949 µM, first compound 0.01 µM): 6.25%
- viability, T/C [17]: 0.85%
- viability, T/C [18]: 0.82%
- viability, T/C [19]: 1.11%
- viability, T/C [20]: 1.25%
- viability, T/C (second compound 0.3 µM, first compound 0.00316 µM): 86.9%
- viability, T/C (second compound 0.3 µM, first compound 0.01 µM): 3.9%
- viability, T/C [21]: 0.92%
- viability, T/C [22]: 0.98%
- viability, T/C [23]: 0.91%
- viability, T/C [24]: 1.22%
